Biological target: human PD-L1 (Homo sapiens (Human), UniProt Q9NZQ7)
Assay: Enzyme-Linked Immunosorbent Assay (ELISA), PD-1/PD-L1 binding
Conditions: plate-coated human PD-L1, biotinylated human PD-1
Procedure: Plates were coated with 1 μg/mL of human PD-L1 (obtained from R&D) in PBS overnight at 4° C. The wells were then blocked with 2% BSA in PBS (W/V) with 0.05% TWEEN-20 for 1 hour at 37° C. The plates were washed 3 times with PBS/0.05% TWEEN-20 and the samples were diluted to 1:5 in dilution medium in the ELISA plates. Human PD-1 and biotin 0.3 μg/mL (ACRO Biosystems) were added and incubated for 1 hour at 37° C. then washed 3 times with PBS/0.05% TWEEN-20. A second block was added with 2% SA in PBS (W/V)/0.05% TWEEN-20 for 10 min at 37° C. and was washed 3 times with PBS/0.05% TWEEN-20. Streptavidin-HRP was added for 1 hour at 37° C. then washed 3 times with PBS/0.05% TWEEN-20. TMB substrate was added and reacted for 20 min at 37° C. A stop solution (2 N aqueous H2SO4) was added. The absorbance was read at 450 nm using a micro-plate spectrophotometer.

human PD-L1, sequence (Q9NZQ7 19-239): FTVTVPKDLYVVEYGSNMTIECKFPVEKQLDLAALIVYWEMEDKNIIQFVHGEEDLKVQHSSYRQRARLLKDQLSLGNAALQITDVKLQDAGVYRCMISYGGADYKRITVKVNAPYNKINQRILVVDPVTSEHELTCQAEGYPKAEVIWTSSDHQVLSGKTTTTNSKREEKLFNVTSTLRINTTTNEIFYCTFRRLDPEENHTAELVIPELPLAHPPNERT

IC50 | Structure (SMILES)
5 to 500 nM | CCOc1cc(NC2CCc3c(-c4cccc(OCCCN5CCC(F)CC5)c4C)cccc32)c(Cl)cc1CNC[C@@H]1CCC(=O)N1 (some centres unmarked)
500 to 20000 nM | CCOc1cc(NC2CCc3c(-c4cccc(OCCCN5CCC(F)CC5)c4C)cccc32)c(Cl)cc1CN[C@H]1CCC(=O)NC1 (some centres unmarked)
5 to 500 nM | CCOc1cc(NC2CCc3c(-c4cccc(OCCCN5CCC(C)(F)CC5)c4C)cccc32)c(Cl)cc1CNC[C@@H]1CCC(=O)N1 (some centres unmarked)
500 to 20000 nM | CCOc1cc(NC2CCc3c(-c4cccc(OCCCN5CCC(C)(F)CC5)c4C)cccc32)c(Cl)cc1CN[C@H]1CCC(=O)NC1 (some centres unmarked)
500 to 20000 nM | CCOc1cc(NC2CCc3c(-c4cccc(OCCCN5CCC(C)(F)CC5)c4Cl)cccc32)c(Cl)cc1CN1CCC(O)CC1 (centres unmarked)
500 to 20000 nM | CCOc1cc(NC2CCc3c(-c4cccc(OCCCN5CCC(C)(F)CC5)c4Cl)cccc32)c(Cl)cc1CN[C@H]1CCC(=O)NC1 (some centres unmarked)
5 to 500 nM | CCOc1cc(NC2CCc3c(-c4cccc(OCCCN5CCC(F)CC5)c4C)cccc32)c(Cl)cc1CN[C@@H](CO)C(=O)O (some centres unmarked)
5 to 500 nM | CCOc1cc(NC2CCc3c(-c4ccccc4F)cccc32)c(Cl)cc1CN[C@@H](CO)C(=O)O (stereo partly drawn) [(2S)-2-[[5-chloro-2-ethoxy-4-[[4-(2-fluorophenyl)indan-1-yl]amino]phenyl]methylamino]-3-hydroxy-propanoic Acid]

Source: patent publication US10568874B2, “Indane-amines as PD-L1 antagonists” (CHEMOCENTRYX, INC., priority 2018, dated 2020)
